Experiments:
Conditions in all cases: dosage 320 g/ha
ECHCG = experiment: Herbicidal action pre-emergence (PE); format: in vivo, Echinochloa crus-galli
SETVI [1] = experiment: Herbicidal action pre-emergence (PE); format: in vivo, Setaria viridis
AMARE [2] = experiment: Herbicidal action pre-emergence (PE); format: in vivo, Amaranthus retroflexus
VIOTR [3] = experiment: Herbicidal action pre-emergence (PE); format: in vivo, Viola tricolor
MATIN = experiment: Herbicidal action pre-emergence (PE); format: in vivo, Matricaria inodora
POLCO = experiment: Herbicidal action pre-emergence (PE); format: in vivo, Polygonum convolvulus
SETVI [4] = experiment: Herbicidal action post-emergence (PO); format: in vivo, Setaria viridis
AMARE [5] = experiment: Herbicidal action post-emergence (PO); format: in vivo, Amaranthus retroflexus
VIOTR [6] = experiment: Herbicidal action post-emergence (PO); format: in vivo, Viola tricolor
ABUTH = experiment: Herbicidal action post-emergence (PO); format: in vivo, Abutilon theophrasti
PHBPU = experiment: Herbicidal action post-emergence (PO); format: in vivo, Pharbitis purpurea

SMILES | ECHCG (ECHCG) | SETVI (SETVI [1]) | AMARE (AMARE [2]) | VIOTR (VIOTR [3]) | MATIN (MATIN) | POLCO (POLCO) | SETVI (SETVI [4]) | AMARE (AMARE [5]) | VIOTR (VIOTR [6]) | ABUTH (ABUTH) | PHBPU (PHBPU)
Nc1nsc2c1NCN(CC1CCCCO1)C2=O (stereo not shown) [Example I-43] | 100 | 90 | 100 | 100 | 90 | 100 | – | – | – | – | –
Nc1nsc2c(=O)n(CC3=CCCCC3)cnc12 [Example I-29] | 100 | 100 | 100 | 100 | 100 | 100 | 100 | 100 | 100 | 80 | 80
O=C(Nc1nsc2c(=O)n(Cc3ccc(F)cc3F)cnc12)C(F)(F)C(F)(F)Cl [Example I-76] | 90 | 100 | 100 | 100 | 100 | 100 | – | 100 | 100 | 80 | –
O=C(Nc1nsc2c(=O)n(Cc3ccc(F)cc3F)cnc12)C(F)(Cl)C(F)(F)F (stereo not shown) [Example I-77] | 80 | 100 | 100 | 100 | 100 | 100 | – | – | – | – | –
COC(=O)C(=O)Nc1nsc2c(=O)n(Cc3ccc(F)cc3F)cnc12 [Example I-81] | 100 | 90 | 100 | 100 | 100 | 100 | – | – | – | – | –
CC(c1ccccc1)n1cnc2c(NC(=O)C3CC3)nsc2c1=O (stereo not shown) [Example I-40] | – | – | – | – | – | – | 90 | 100 | 100 | 100 | 100
COC(=O)CCC(=O)Nc1nsc2c(=O)n(CC3CCCCC3)cnc12 [Example I-72] | 100 | 100 | 100 | 100 | 100 | 100 | 90 | 100 | 90 | 100 | 100
CCC(=O)Nc1nsc2c(=O)n(CC3CCCCC3)cnc12 [Example I-54] | 100 | 100 | 100 | 100 | 100 | 100 | – | 100 | 90 | 100 | –
Nc1nsc2c1NCN(Cc1ccc(F)cc1F)C2=O [Example I-42] | 100 | 100 | 100 | 100 | 100 | 100 | 100 | 100 | 100 | 80 | 100
O=C(Nc1nsc2c(=O)n(Cc3ccc(F)cc3F)cnc12)C(F)(F)C(F)(F)F [Example I-78] | 100 | 100 | 100 | 100 | 100 | 100 | 100 | 100 | 100 | 80 | 100
Nc1nsc2c(=O)n(CC3CCCCCC3)cnc12 [Example I-31] | 90 | 100 | 100 | 100 | 100 | 100 | – | – | – | – | –
Nc1nsc2c1NCN(Cc1ccc(F)cc1)C2=O [Example I-64] | 100 | 100 | 100 | 100 | 100 | 90 | – | 100 | 80 | 90 | –
COCC(=O)Nc1nsc2c(=O)n(Cc3ccc(F)cc3F)cnc12 [Example I-83] | 100 | 100 | 100 | 100 | 100 | 90 | – | – | – | – | –
Nc1nsc2c1NCN(CC1CCCC1)C2=O [Example I-63] | 100 | 100 | 100 | 100 | 100 | 100 | – | 100 | 100 | 100 | –
O=C(Nc1nsc2c(=O)n(CC3CCCCC3)cnc12)C(F)(F)C(F)(F)C(F)(F)F [Example I-58] | 100 | 100 | 100 | 100 | 90 | 90 | – | 100 | 100 | 90 | –
CCCC(=O)Nc1nsc2c(=O)n(CC3CCCCC3)cnc12 [Example I-45] | 100 | 100 | 100 | 100 | 100 | 100 | – | 100 | 90 | 100 | –
O=C(Nc1nsc2c(=O)n(CC3CCCCC3)cnc12)C(F)(Cl)C(F)(F)F (stereo not shown) [Example I-67] | 100 | 100 | 100 | 100 | 100 | 100 | – | – | – | – | –
O=C(Nc1nsc2c(=O)n(CC3CCCCC3)cnc12)C(F)(F)C(F)(F)F [Example I-57] | 100 | 100 | 100 | 100 | 100 | 100 | – | 100 | 100 | 100 | –
Cc1nn(CC2CCCCC2)c(=O)c2snc(N)c12 [Example I-75, 3-amino-6-(cyclohexylmethyl)-4-methyl-isothiazolo[4,5-d]pyridazin-7-one] | 90 | 100 | 100 | 90 | 90 | 90 | – | – | – | – | –
O=C(CCl)Nc1nsc2c(=O)n(CC3CCCCC3)cnc12 [Example I-56] | 100 | 100 | 100 | 100 | 90 | 100 | – | – | – | – | –
CC(=O)Nc1nsc2c(=O)n(CC3CCCCC3)cnc12 [Example I-55] | 100 | 100 | 100 | 100 | 100 | 100 | – | 100 | 100 | 100 | –
O=C(CC(F)(F)F)Nc1nsc2c(=O)n(CC3CCCCC3)cnc12 [Example I-73] | 100 | 100 | 100 | 100 | 100 | 100 | – | 100 | 100 | 100 | –
O=C(CC(F)(F)F)Nc1nsc2c(=O)n(Cc3ccc(F)cc3F)cnc12 [Example I-82] | 100 | 100 | 100 | 100 | 100 | 100 | – | – | – | – | –

Source: patent US20200123175A1, “NOVEL ISOTHIAZOLO-BASED BICYCLES, PROCESSES FOR THEIR PREPARATION AND THEIR USE AS HERBICIDES AND/OR PLANT GROWTH REGULATORS” (Bayer CropScience Aktiengesellschaft, priority 2017, published 2020)
